Results: PubChem BioAssay AID1963958 (Molecular Pharmacology Branch, DTP, NCI, 2024)

System: MDA-MB-231 multicell spheroids, viability
Experiment: Anticancer human tumor MDA-MB-231 cell line growth inhibition [PI3K];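 note: spheroids exposed to agents for seven days before reading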;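 for viability, T/C: percent of vehicle control luminescence with DMSO treated spheroids as 100%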
Conditions: for IC50: curve of first compound; for viability, T/C: stronger effect = lower value
Outline: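 We assembled tumor spheroids that included a stromal compartment of HUVEC and MSCs, then exposed them to targeted agents alone and together with PI3K pathway inhibitors. Concentration series descended by half-log from clinically achievable Cmax levels. Viability served as the endpoint.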

[1] = second compound 0.00316 µM, first compound 0.000316 µM
[2] = second compound 0.00316 µM, first compound 0.001 µM
[3] = second compound 0.00316 µM, first compound 0.00316 µM
[4] = second compound 0.00316 µM, first compound 0.01 µM
[5] = second compound 0.00316 µM, first compound 0.0316 µM
[6] = second compound 0.00316 µM, first compound 0.1 µM
[7] = second compound 0.01 µM, first compound 0.000316 µM
[8] = second compound 0.01 µM, first compound 0.001 µM
[9] = second compound 0.01 µM, first compound 0.00316 µM
[10] = second compound 0.01 µM, first compound 0.01 µM
[11] = second compound 0.01 µM, first compound 0.0316 µM
[12] = second compound 0.01 µM, first compound 0.1 µM
[13] = second compound 0.0316 µM, first compound 0.000316 µM
[14] = second compound 0.0316 µM, first compound 0.001 µM
[15] = second compound 0.0316 µM, first compound 0.00316 µM
[16] = second compound 0.0316 µM, first compound 0.01 µM
[17] = second compound 0.0316 µM, first compound 0.0316 µM
[18] = second compound 0.0316 µM, first compound 0.1 µM
[19] = second compound 0.1 µM, first compound 0.000316 µM
[20] = second compound 0.1 µM, first compound 0.001 µM
[21] = second compound 0.1 µM, first compound 0.00316 µM
[22] = second compound 0.1 µM, first compound 0.01 µM
[23] = second compound 0.1 µM, first compound 0.0316 µM
[24] = second compound 0.1 µM, first compound 0.1 µM
[25] = second compound 0.316 µM, first compound 0.000316 µM
[26] = second compound 0.316 µM, first compound 0.001 µM
[27] = second compound 0.316 µM, first compound 0.00316 µM
[28] = second compound 0.316 µM, first compound 0.01 µM
[29] = second compound 0.316 µM, first compound 0.0316 µM
[30] = second compound 0.316 µM, first compound 0.1 µM
[31] = second compound 1 µM, first compound 0.000316 µM
[32] = second compound 1 µM, first compound 0.001 µM
[33] = second compound 1 µM, first compound 0.00316 µM
[34] = second compound 1 µM, first compound 0.01 µM
[35] = second compound 1 µM, first compound 0.0316 µM
[36] = second compound 1 µM, first compound 0.1 µM
[37] = second compound 0.00316 µM, first compound 0.316 µM
[38] = second compound 0.00316 µM, first compound 1 µM
[39] = second compound 0.00316 µM, first compound 3.16 µM
[40] = second compound 0.00316 µM, first compound 10 µM
[41] = second compound 0.01 µM, first compound 0.316 µM
[42] = second compound 0.01 µM, first compound 1 µM
[43] = second compound 0.01 µM, first compound 3.16 µM
[44] = second compound 0.01 µM, first compound 10 µM
[45] = second compound 0.0316 µM, first compound 0.316 µM
[46] = second compound 0.0316 µM, first compound 1 µM
[47] = second compound 0.0316 µM, first compound 3.16 µM
[48] = second compound 0.0316 µM, first compound 10 µM
[49] = second compound 0.1 µM, first compound 0.316 µM
[50] = second compound 0.1 µM, first compound 1 µM
[51] = second compound 0.1 µM, first compound 3.16 µM
[52] = second compound 0.1 µM, first compound 10 µM
[53] = second compound 0.316 µM, first compound 0.316 µM
[54] = second compound 0.316 µM, first compound 1 µM
[55] = second compound 0.316 µM, first compound 3.16 µM
[56] = second compound 0.316 µM, first compound 10 µM
[57] = second compound 1 µM, first compound 0.316 µM
[58] = second compound 1 µM, first compound 1 µM
[59] = second compound 1 µM, first compound 3.16 µM
[60] = second compound 1 µM, first compound 10 µM

CC(=O)c1c(C)c2cnc(Nc3ccc(N4CCNCC4)cn3)nc2n(C2CCCC2)c1=O + COc1c(OCCCN2CCOCC2)ccc2c3n(c(=NC(=O)c4cnc(N)nc4)nc12)CCN3
IC50 (second compound 0.00316 µM): 79.4 nM
IC50 (second compound 0.01 µM): 37.3 nM
IC50 (second compound 0.0316 µM): 10.4 nM
IC50 (second compound 0.1 µM): < 0.316 nM
IC50 (second compound 0.316 µM): < 0.316 nM
IC50 (second compound 1 µM): < 0.316 nM
viability, T/C [1]: 96.5%
viability, T/C [2]: 94.8%
viability, T/C [3]: 90.4%
viability, T/C [4]: 85.2%
viability, T/C [5]: 69.5%
viability, T/C [6]: 45%
viability, T/C [7]: 80.6%
viability, T/C [8]: 79.9%
viability, T/C [9]: 73.7%
viability, T/C [10]: 62.5%
viability, T/C [11]: 53.6%
viability, T/C [12]: 35.9%
viability, T/C [13]: 58.4%
viability, T/C [14]: 59.7%
viability, T/C [15]: 54.2%
viability, T/C [16]: 50.5%
viability, T/C [17]: 41.3%
viability, T/C [18]: 26.7%
viability, T/C [19]: 46.9%
viability, T/C [20]: 44.9%
viability, T/C [21]: 41.3%
viability, T/C [22]: 39.2%
viability, T/C [23]: 33.1%
viability, T/C [24]: 21.1%
viability, T/C [25]: 33.4%
viability, T/C [26]: 31%
viability, T/C [27]: 27.9%
viability, T/C [28]: 27.3%
viability, T/C [29]: 20.4%
viability, T/C [30]: 16.4%
viability, T/C [31]: 25%
viability, T/C [32]: 25%
viability, T/C [33]: 23.5%
viability, T/C [34]: 24%
viability, T/C [35]: 21.6%
viability, T/C [36]: 19.6%

CC(C)n1nc(-c2ccc3oc(N)nc3c2)c2c(N)ncnc21 + COc1c(OCCCN2CCOCC2)ccc2c3n(c(=NC(=O)c4cnc(N)nc4)nc12)CCN3
IC50 (second compound 0.00316 µM): 46.8 nM
IC50 (second compound 0.01 µM): 19.5 nM
IC50 (second compound 0.0316 µM): 5.36 nM
IC50 (second compound 0.1 µM): < 0.316 nM
IC50 (second compound 0.316 µM): < 0.316 nM
IC50 (second compound 1 µM): < 0.316 nM
viability, T/C [1]: 98.6%
viability, T/C [2]: 93.6%
viability, T/C [3]: 83.9%
viability, T/C [4]: 76.1%
viability, T/C [5]: 55.6%
viability, T/C [6]: 36.9%
viability, T/C [7]: 78.3%
viability, T/C [8]: 78.5%
viability, T/C [9]: 68.8%
viability, T/C [10]: 58.3%
viability, T/C [11]: 44.3%
viability, T/C [12]: 29.1%
viability, T/C [13]: 57.7%
viability, T/C [14]: 59.3%
viability, T/C [15]: 54.4%
viability, T/C [16]: 44.2%
viability, T/C [17]: 32.2%
viability, T/C [18]: 21.4%
viability, T/C [19]: 47%
viability, T/C [20]: 45.8%
viability, T/C [21]: 40.1%
viability, T/C [22]: 34.7%
viability, T/C [23]: 26.6%
viability, T/C [24]: 19.8%
viability, T/C [25]: 34.2%
viability, T/C [26]: 31.5%
viability, T/C [27]: 28.9%
viability, T/C [28]: 25.4%
viability, T/C [29]: 21.9%
viability, T/C [30]: 18.5%
viability, T/C [31]: 26%
viability, T/C [32]: 23.9%
viability, T/C [33]: 23.8%
viability, T/C [34]: 23%
viability, T/C [35]: 24.5%
viability, T/C [36]: 22.5%

CC1(C)CCC(CN2CCN(c3ccc(C(=O)NS(=O)(=O)c4ccc(NCC5CCOCC5)c([N+](=O)[O-])c4)c(Oc4cnc5[nH]ccc5c4)c3)CC2)=C(c2ccc(Cl)cc2)C1 + COc1c(OCCCN2CCOCC2)ccc2c3n(c(=NC(=O)c4cnc(N)nc4)nc12)CCN3
IC50 (second compound 0.00316 µM): > 10000 nM
IC50 (second compound 0.01 µM): > 10000 nM
IC50 (second compound 0.0316 µM): > 10000 nM
IC50 (second compound 0.1 µM): < 31.6 nM
IC50 (second compound 0.316 µM): < 31.6 nM
IC50 (second compound 1 µM): < 31.6 nM
viability, T/C [5]: 100%
viability, T/C [6]: 96.4%
viability, T/C [37]: 96.8%
viability, T/C [38]: 104%
viability, T/C [39]: 102%
viability, T/C [40]: 104%
viability, T/C [11]: 82.1%
viability, T/C [12]: 80.1%
viability, T/C [41]: 85%
viability, T/C [42]: 91.1%
viability, T/C [43]: 85.2%
viability, T/C [44]: 83.9%
viability, T/C [17]: 65.9%
viability, T/C [18]: 66.4%
viability, T/C [45]: 65.2%
viability, T/C [46]: 65.7%
viability, T/C [47]: 67.4%
viability, T/C [48]: 66.5%
viability, T/C [23]: 46.2%
viability, T/C [24]: 45.6%
viability, T/C [49]: 48.1%
viability, T/C [50]: 47.7%
viability, T/C [51]: 48.9%
viability, T/C [52]: 44.9%
viability, T/C [29]: 35.6%
viability, T/C [30]: 34.8%
viability, T/C [53]: 36.1%
viability, T/C [54]: 35.3%
viability, T/C [55]: 35.8%
viability, T/C [56]: 33.6%
viability, T/C [35]: 25.7%
viability, T/C [36]: 26.2%
viability, T/C [57]: 24.5%
viability, T/C [58]: 23.9%
viability, T/C [59]: 25.1%
viability, T/C [60]: 22.2%

CCCS(=O)(=O)Nc1ccc(F)c(C(=O)c2c[nH]c3ncc(-c4ccc(Cl)cc4)cc23)c1F + COc1c(OCCCN2CCOCC2)ccc2c3n(c(=NC(=O)c4cnc(N)nc4)nc12)CCN3
IC50 (second compound 0.00316 µM): 5140 nM
IC50 (second compound 0.01 µM): 3480 nM
IC50 (second compound 0.0316 µM): 1650 nM
IC50 (second compound 0.1 µM): < 31.6 nM
IC50 (second compound 0.316 µM): < 31.6 nM
IC50 (second compound 1 µM): < 31.6 nM
viability, T/C [5]: 104%
viability, T/C [6]: 103%
viability, T/C [37]: 96.6%
viability, T/C [38]: 76.5%
viability, T/C [39]: 63.1%
viability, T/C [40]: 34.8%
viability, T/C [11]: 74.4%
viability, T/C [12]: 91.3%
viability, T/C [41]: 80.4%
viability, T/C [42]: 67.6%
viability, T/C [43]: 53%
viability, T/C [44]: 32.3%
viability, T/C [17]: 65.1%
viability, T/C [18]: 64.7%
viability, T/C [45]: 62.7%
viability, T/C [46]: 57%
viability, T/C [47]: 41%
viability, T/C [48]: 25.3%
viability, T/C [23]: 48%
viability, T/C [24]: 49.8%
viability, T/C [49]: 50%
viability, T/C [50]: 44.5%
viability, T/C [51]: 34%
viability, T/C [52]: 20.9%
viability, T/C [29]: 34.8%
viability, T/C [30]: 35.1%
viability, T/C [53]: 34.4%
viability, T/C [54]: 30.7%
viability, T/C [55]: 24.4%
viability, T/C [56]: 15.7%
viability, T/C [35]: 28.2%
viability, T/C [36]: 28.3%
viability, T/C [57]: 26.7%
viability, T/C [58]: 24.9%
viability, T/C [59]: 20.3%
viability, T/C [60]: 13.2%

C[C@@H](NC(=O)c1ncnc(N)c1Cl)c1ncc(C(=O)Nc2cc(C(F)(F)F)c(Cl)cn2)s1 + COc1c(OCCCN2CCOCC2)ccc2c3n(c(=NC(=O)c4cnc(N)nc4)nc12)CCN3
IC50 (second compound 0.00316 µM): > 10000 nM
IC50 (second compound 0.01 µM): > 10000 nM
IC50 (second compound 0.0316 µM): 1730 nM
IC50 (second compound 0.1 µM): 136 nM
IC50 (second compound 0.316 µM): < 31.6 nM
IC50 (second compound 1 µM): < 31.6 nM
viability, T/C [5]: 123%
viability, T/C [6]: 110%
viability, T/C [37]: 100%
viability, T/C [38]: 84.2%
viability, T/C [39]: 71%
viability, T/C [40]: 59.1%
viability, T/C [11]: 108%
viability, T/C [12]: 90.4%
viability, T/C [41]: 81.6%
viability, T/C [42]: 65.7%
viability, T/C [43]: 59.8%
viability, T/C [44]: 52.5%
viability, T/C [17]: 75.9%
viability, T/C [18]: 72.9%
viability, T/C [45]: 61.5%
viability, T/C [46]: 54.5%
viability, T/C [47]: 45.9%
viability, T/C [48]: 39.9%
viability, T/C [23]: 61%
viability, T/C [24]: 49.6%
viability, T/C [49]: 45.4%
viability, T/C [50]: 39.4%
viability, T/C [51]: 34.2%
viability, T/C [52]: 28.3%
viability, T/C [29]: 38.8%
viability, T/C [30]: 35.3%
viability, T/C [53]: 29.4%
viability, T/C [54]: 23.4%
viability, T/C [55]: 20.3%
viability, T/C [56]: 15.9%
viability, T/C [35]: 33.4%
viability, T/C [36]: 25.4%
viability, T/C [57]: 23.2%
viability, T/C [58]: 18.2%
viability, T/C [59]: 15.3%
viability, T/C [60]: 10.6%
